Read-outs that look alike come from different tables or passages of the source.
Test system: Plasmodium falciparum Dd2 asexual blood stage parasites
Assay: microbe, parasite or virus in culture
Design: species or system Plasmodium falciparum Dd2 in human erythrocytes; single determination (one 11-point concentration-response curve)
Conditions: Plasmodium falciparum, DD2, Erythrocyte, 72 h

Row | Structure (SMILES) | AC50 (read-out: AC50) | AC50
1 | COc1ccccc1N1CCN(C(=O)c2ccc3c(c2)N(Cc2cc(C)ccc2C)C(=O)c2ccccc2[S+]3(=O)[O-])CC1 [NCGC00109735-01] | 9.44 µM | 
2 | C[S+](=O)([O-])c1cccc(-c2cnc3[nH]cc(CC(=O)NCc4cccnc4)c3c2)c1 [NCGC00412364-01] | 9.68 µM | 
3 | Cc1ccc(CN2CCCN(Cc3ccncc3)C(c3ccccc3)CC(=O)NCC2)s1 (centres unmarked) [NCGC00467183-01] | 2.66 µM | 
4 | CC(=O)Oc1ccc2ccccc2c1C(NC(=O)C(C)C)c1cccc([N+](=O)[O-])c1 (centres unmarked) [MLS000526079-01] | 16.8 µM | 
5 | CC(C)(C)NC(=O)c1ccc(-c2nnc3ccc(NC(=O)C4CC4)cn23)cc1 [NCGC00429854-01] | 9.44 µM | 
6 | CC1=C[C@@H](CN2CCC[C@H]2CO)[C@H](C(C)C)C[C@H]1Cc1nnc(-c2ccc(N(C)C)cc2)o1 [NCGC00394794-01] | 13.3 µM | 
7 | O=C(Nc1ccc(Cl)cc1)N1CCC2(CC1)CCN(Cc1cccs1)c1ccccc1O2 [NCGC00478210-01] | 8.41 µM | 
8 | COc1ccc(-c2nc(Cn3c(SCc4ccccc4F)nc4ccncc43)c(C)o2)cc1OC [NCGC00113862-01] | 8.41 µM | 
9 | CN(C)C[C@@H]1CN(C)C[C@H]1N[S+](=O)([O-])c1ccc(Br)cc1 [NCGC00462726-01] | 13.3 µM | 
10 | CCOC(=O)c1c(CN(CC)CC)n(C)c2cc(Br)c(O)cc12 [MLS000778381-01] | 9.44 µM | 
11 | Cc1cc(C(=O)CN2C(=O)NC(C)(c3cccc(Br)c3)C2=O)c(C)n1Cc1ccco1 (centres unmarked) [MLS000055137-01] | 13.3 µM | 
12 | Cc1cc(Nc2ccc(C)c(C)c2)n2nc(C)nc2n1 [MLS000116616-01] | 4.73 µM | 
13 | COCCOc1ccnc(-c2noc([C@@H]3CCCN3Cc3cn(C)c4ccccc34)n2)c1 [NCGC00394869-01] | 19.3 µM | 
14 | CC1CCCN(Cc2c(O)ccc3c(=O)c(Oc4ccc(C(C)(C)C)cc4)c(C(F)(F)F)oc23)C1 (centres unmarked) [NCGC00100587-01] | 0.299 µM | 
15 | O=C1C=C(c2cccc(CO)c2)C[C@@H](c2ccc(Cl)cc2)C1 [MLS002302575-01] | 3.76 µM | 
16 | Cc1ccc([S+](=O)([O-])N2CCC(OC3CCN(Cc4ccccc4)CC3)CC2)cc1C [NCGC00444948-01] | 15 µM | 
17 | CCCCCCSc1ccc([C@@H]2[C@H]3C(=O)N(CC)C(=O)[C@H]3[C@]3(C(=O)OC)CCCCN23)cc1OC [MLS001362153-01] |  | 15 µM
18 | CN1CCOc2c(C(=O)NCc3cccnc3)cc(-c3cccc4[nH]ccc34)cc21 [NCGC00416962-01] | 8.63 µM | 
19 | Cc1ccc(S(=O)(=O)Nc2ccc(-c3cn4ccc(C)cc4n3)cc2)cc1 [MLS000579534-01] | 6.68 µM | 
20 | CC(C)C(=O)N1Cc2ccccc2OC2(CCN(C(C)C)CC2)C1 [NCGC00456474-01] | 10.6 µM | 
21 | COC(=O)c1cc(C(=O)c2ccc(Cl)cc2Cl)cn1C [MLS000546235-01] | 13.3 µM | 
22 | O=c1nc(C2CCN(S(=O)(=O)/C=C/c3ccccc3)CC2)[nH]c2c1nnn2Cc1ccc(F)cc1 [MLS001229566-01] | 13.3 µM | 
23 | O=C(Nc1ccncc1)Nc1ccc(Cl)cc1 [MLS001224591-01] | 10.6 µM | 
24 | O=C(Nc1nccs1)C1c2ccccc2C(=O)N(C2CCCC2)C12CCCC2 (centres unmarked) [NCGC00423502-01] | 4.22 µM | 
25 | Cn1ccc(NCc2nnc(C(=O)N3CCC[C@@H]3C(c3ccccc3)c3ccccc3)n2-c2ccccc2)n1 [NCGC00415774-01] | 1.33 µM | 
26 | Cc1noc(C)c1-c1cc2c(cc(-c3ccccc3)n2C)c(-c2cccnc2)n1 [NCGC00417168-01] | 10.9 µM | 

Row | Structure (SMILES) | AC50 (read-out: AC50) | AC50
27 | O=C(CCC1CCN(Cc2cccc3c2OCO3)CC1)NCc1cccc(C(F)(F)F)c1 [NCGC00426823-01] | 3.76 µM | 
28 | CC(=O)Nc1ccc(NC(=O)c2c(C)oc3ccn(Cc4ccc(F)cc4)c(=O)c23)cc1 [NCGC00433889-01] | 10.6 µM | 
29 | O=C(NC1=C(Nc2ccc(Cl)cc2)C(=O)c2ccccc2C1=O)c1ccccc1 [MLS000375030-01] | 0.473 µM | 
30 | Cc1ccc2nc(Cl)c3cc(C(=O)NCCCN4CCC(C)CC4)sc3c2c1 [NCGC00110841-01] | 6.68 µM | 
31 | Cc1cc(Nc2nc3ccccc3nc2Cl)n(-c2ccccc2C)n1 [MLS000595322-01] | 0.841 µM | 
32 | CCOc1ccc(-n2c(SCC(N)=O)nc3sc4c(c3c2=O)CCN(C)C4)cc1 [MLS000332254-01] | 15 µM | 
33 | CC(=O)C1=C(c2ccc(Br)cc2)N(C(C)=O)n2c(nnc2C2CCCCC2)S1 [NCGC00137196-01] | 2.99 µM | 
34 | COc1ccccc1NS(=O)(=O)c1cc(NC(=O)c2cccc(S(=O)(=O)N(C)C)c2)ccc1N1CCOCC1 [MLS002162226-01] | 7.5 µM | 
35 | Cc1cc(Nc2ccc(C)c(F)c2)n2ncnc2n1 [MLS000033310-01] | 9.44 µM | 
36 | COc1ccc(CCNC(=O)Cn2c(-c3cccs3)cc3cc(F)ccc32)cc1OC [NCGC00111974-01] | 4.73 µM | 
37 | Cc1noc(C)c1[S+](=O)([O-])N1CCCN(Cc2ccncc2)C(c2ccccc2)CC(=O)NCC1 (centres unmarked) [NCGC00467205-01] | 7.5 µM | 
38 | CNC(=O)CCn1ncc2cc(OCc3ccccc3-c3ccc(OC)cc3Cl)ccc21 [NCGC00418132-01] | 16.8 µM | 
39 | CCc1cccc(C)c1NC(=O)CN1CCN(S(=O)(=O)c2ccc(C(C)(C)C)cc2)CC1 [MLS001070982-01] | 8.41 µM | 
40 | COc1ccccc1N1CCN(C(c2cc3ccc(C)cc3nc2O)c2nnnn2C2CCCC2)CC1 (centres unmarked) [MLS000077380-01] | 7.5 µM | 
41 | N#Cc1c2c(c(NCc3ccco3)n3c1nc1ccccc13)CCC2 [MLS000109113-01] | 2.37 µM | 
42 | COc1ccc(CC(=O)N2Cc3ccccc3CC3(CCCN3C)C2)cc1 (centres unmarked) [NCGC00377108-01] | 9.44 µM | 
43 | CCOC(=O)C1=C(C)NC(=O)CC1c1cc(OC)c(OC)cc1Br (centres unmarked) [MLS000723492-01] | 5.31 µM | 
44 | COc1ccc2c(c1)OC(C)(C)[C@@H](c1ccccc1)[C@@H]2c1ccc(OCCN2CCCC2)cc1 [NCGC00181100-01] | 6.68 µM | 
45 | FC(F)(F)CN1C2CCC1CN(c1nnc(Cl)c3ccccc13)C2 [NCGC00375660-01] | 2.11 µM | 
46 | CCN1CCN(c2cc(C)c3cc(NC(=O)c4cc(OC)cc(OC)c4)ccc3n2)CC1 [NCGC00103842-01] | 3.35 µM | 
47 | COc1ccccc1CN1CCC(CNC(=O)c2cnn(-c3cccc(Cl)c3)c2C2CCN(C(=O)OC(C)(C)C)CC2)CC1 [NCGC00126858-01] | 7.5 µM | 
48 | C[n+]1c(-c2ccccc2)cc(-c2ccc(Cl)cc2)cc1-c1ccccc1.[O-][Cl+3]([O-])([O-])O [MLS001018624-01] | 6.68 µM | 
49 | Cc1cccc(CNCc2ccccc2OCC(O)CN2CCSCC2)c1 (centres unmarked) [NCGC00428382-01] | 1.5 µM | 
50 | CCC(=O)Nc1ccc2nnc(-c3ccc(C(=O)Nc4ccc5c(c4)OCCO5)cc3)n2c1 [NCGC00429833-01] | 7.5 µM | 
51 | COc1ccc(NC(=O)Cn2cccc2-c2nc(-c3ccc(OC)c(F)c3)no2)cc1 [NCGC00445480-01] | 4.73 µM | 
52 | CCOC(=O)c1c(CN2CCN(CCO)CC2)n(-c2ccccc2)c2cc(Br)c(O)cc12 [MLS000778151-01] | 5.96 µM | 

Row | Structure (SMILES) | AC50 (read-out: AC50) | AC50
53 | COC(=O)c1ccc2nc(CO[C@H]3CN(Cc4cn(C)c5ccccc45)C[C@H]3F)[nH]c2c1 [NCGC00392963-01] | 13.3 µM | 
54 | CC(C)(C)c1ccc(-c2noc(-c3ncn4c3COC(c3ccc(F)cc3)C4)n2)cc1 (centres unmarked) [NCGC00449976-01] | 15 µM | 
55 | Cc1noc(C)c1-c1nccc2c(=O)cc(N(C)c3ccccc3)oc12 [NCGC00416678-01] | 17.2 µM | 
56 | O=C(c1nnc(CN2CCC(F)(F)CC2)n1-c1cccnc1)N1CCC[C@@H]1C(c1ccccc1)c1ccccc1 [NCGC00415758-01] | 15 µM | 
57 | CCN(c1ccccc1)[S+](=O)([O-])c1cc(Br)cc2c1N(C(=O)C1CC1)CC2 [NCGC00104258-01] | 2.99 µM | 
58 | CCOC(=O)c1[nH]c(Cc2[nH]c(C(=O)OCC)c(C)c2CCC(=O)OC)c(CCC(=O)OC)c1C [MLS000111116-01] | 5.31 µM | 
59 | CCn1cc(C(=O)NCCCN2CCCC(C)C2)c(=O)c2cc([S+](=O)([O-])N(C)C3CCCCC3)ccc21 (centres unmarked) [NCGC00109162-01] | 8.41 µM | 
60 | COCCN1C(=O)c2ccccc2C(C(=O)Nc2nc3ccccc3[nH]2)C12CCCCC2 (centres unmarked) [NCGC00423176-01] | 4.73 µM | 
61 | CCCCN(CCCC)CC(O)Cn1cc(/C=C/C(=O)c2ccccc2)c2ccccc21 (centres unmarked) [NCGC00114887-01] | 1.68 µM | 
62 | COCCN1Cc2ccc(NCC(C)C)nc2C(C)(C(=O)Nc2ccncc2)C1 (centres unmarked) [NCGC00414482-01] | 21.7 µM | 
63 | COc1cccc([S+](=O)([O-])N2CCC3(CC2)CC(N(C)Cc2ccccc2)CCO3)c1 (centres unmarked) [NCGC00453781-01] | 8.41 µM | 
64 | Cc1ccc(OCc2nc(C3CCN(C(=O)c4c5c(nc6ccccc46)CCCC5)CC3)no2)cc1 [NCGC00459905-01] | 9.44 µM | 
65 | CC1(c2ccccc2)CC(c2ccccc2)=Nc2nonc2N1 (centres unmarked) [MLS000079110-01] | 5.31 µM | 
66 | CC1(c2ccccc2)N(Cc2cccnc2)C(=O)OC12CCN(C(=O)Cc1ccc(Cl)cc1)CC2 (centres unmarked) [NCGC00415462-01] | 13.3 µM | 
67 | COc1ccc(CCNC(=O)CCc2c(C)nc3c(c(C)nn3-c3ccc(C)c(C)c3)c2C)cc1OC [NCGC00110173-01] | 0.668 µM | 
68 | O[C@]1(c2ccccc2)CCN(Cc2ccncc2)C[C@H]1N1CCCC1 [NCGC00442600-01] | 9.44 µM | 
69 | Cn1c(=O)[nH]c2nnc(-c3ccc(Cl)c(Cl)c3)nc2c1=O [MLS000768805-01] | 8.41 µM | 
70 | CC(=O)c1sc2c(c1C)c(=O)n(-c1ccc(Cl)cc1)c(=O)n2Cc1cc(=O)n2cc(Cl)ccc2n1 [NCGC00104860-01] | 7.5 µM | 
71 | CN(C)CCNC(=O)c1ccc2c(c1)N(Cc1c(F)cccc1Cl)C(=O)c1ccccc1S2 [NCGC00108148-01] | 2.11 µM | 
72 | COc1ccccc1C(=O)N1CCC2(CC1)OC(=O)N(CCOc1ccccc1)C2(C)c1cccnc1 (centres unmarked) [NCGC00415508-01] | 9.44 µM | 
73 | COc1ccc(CN2C(=O)C(C)N(C(=O)c3c(F)cccc3F)c3ccccc32)cc1 (centres unmarked) [MLS001166304-01] | 7.5 µM | 
74 | CCOc1ccc(CCNC(=O)Nc2ccccc2)cc1OCC [MLS001197603-01] | 5.31 µM | 
75 | COc1ccccc1C(=O)N1CCC2(CC1)OC(=O)N(Cc1ccccc1C#N)C2(C)c1ccccc1 (centres unmarked) [NCGC00415624-01] | 15 µM | 
76 | CC(C)C[C@@]12C(=O)N(c3cccc(Br)c3)C(=O)N1[C@H](c1ccc(F)cc1)[C@@H]1C(=O)N(C3CCCCC3)C(=O)[C@@H]12 [MLS001074979-01] | 7.5 µM | 
77 | C#C[C@H]1C[N@@]2CC[C@H]1C[C@@H]2CNCc1cccc(Cl)c1 [NCGC00395254-01] | 4.85 µM | 

From article PMC7822874, “Chemoprotective antimalarials identified through quantitative high-throughput screening of Plasmodium blood and liver stage parasites” (Scientific Reports, 2021)
